Test results taken from ChEMBL document CHEMBL4265899, “Trisubstituted thiazoles as potent and selective inhibitors of Plasmodium falciparum protein kinase G (PfPKG)” (Bioorg Med Chem Lett, 2018).

Key:
[1] = Metabolic stability in human liver microsomes assessed as compound remaining after 40 mins; assay type: ADME, microsome; settings: read-out: Stability
[2] = target: Serine/threonine-protein kinase Nek6 (Homo sapiens) (UniProt Q9HC98); assay: Inhibition of human NEK6 at 100 nM
[3] = target: Homeodomain-interacting protein kinase 2 (Homo sapiens) (UniProt Q9H2X6); assay: Inhibition of human HIPK2 at 100 nM
[4] = target: Serine/threonine-protein kinase pim-1 (Homo sapiens) (UniProt P11309); assay: Inhibition of human PIM1 at 100 nM
[5] = target: Protein kinase C alpha type (Homo sapiens) (UniProt P17252); assay: Inhibition of human PKCalpha at 100 nM
[6] = target: Interleukin-1 receptor-associated kinase 4 (Homo sapiens) (UniProt Q9NWZ3); assay: Inhibition of human IRAK4 at 100 nM
[7] = target: Serine/threonine-protein kinase PAK 4 (Homo sapiens) (UniProt O96013); assay: Inhibition of human PAK4 at 100 nM
[8] = target: Fibroblast growth factor receptor 1 (Homo sapiens) (UniProt P11362); assay: Inhibition of human FGFR1 at 100 nM
[9] = target: Serine/threonine-protein kinase TBK1 (Homo sapiens) (UniProt Q9UHD2); assay: Inhibition of human TBK1 at 100 nM
[10] = target: High affinity nerve growth factor receptor (Homo sapiens) (UniProt P04629); assay: Inhibition of human TrkA at 100 nM
[11] = target: Serine/threonine-protein kinase Nek2 (Homo sapiens) (UniProt P51955); assay: Inhibition of human NEK2a at 100 nM
[12] = target: T1, Serine/threonine-protein kinase D1 (Homo sapiens) (UniProt Q15139); assay: Inhibition of human PKD1 at 100 nM
T1 sequence (whole entry): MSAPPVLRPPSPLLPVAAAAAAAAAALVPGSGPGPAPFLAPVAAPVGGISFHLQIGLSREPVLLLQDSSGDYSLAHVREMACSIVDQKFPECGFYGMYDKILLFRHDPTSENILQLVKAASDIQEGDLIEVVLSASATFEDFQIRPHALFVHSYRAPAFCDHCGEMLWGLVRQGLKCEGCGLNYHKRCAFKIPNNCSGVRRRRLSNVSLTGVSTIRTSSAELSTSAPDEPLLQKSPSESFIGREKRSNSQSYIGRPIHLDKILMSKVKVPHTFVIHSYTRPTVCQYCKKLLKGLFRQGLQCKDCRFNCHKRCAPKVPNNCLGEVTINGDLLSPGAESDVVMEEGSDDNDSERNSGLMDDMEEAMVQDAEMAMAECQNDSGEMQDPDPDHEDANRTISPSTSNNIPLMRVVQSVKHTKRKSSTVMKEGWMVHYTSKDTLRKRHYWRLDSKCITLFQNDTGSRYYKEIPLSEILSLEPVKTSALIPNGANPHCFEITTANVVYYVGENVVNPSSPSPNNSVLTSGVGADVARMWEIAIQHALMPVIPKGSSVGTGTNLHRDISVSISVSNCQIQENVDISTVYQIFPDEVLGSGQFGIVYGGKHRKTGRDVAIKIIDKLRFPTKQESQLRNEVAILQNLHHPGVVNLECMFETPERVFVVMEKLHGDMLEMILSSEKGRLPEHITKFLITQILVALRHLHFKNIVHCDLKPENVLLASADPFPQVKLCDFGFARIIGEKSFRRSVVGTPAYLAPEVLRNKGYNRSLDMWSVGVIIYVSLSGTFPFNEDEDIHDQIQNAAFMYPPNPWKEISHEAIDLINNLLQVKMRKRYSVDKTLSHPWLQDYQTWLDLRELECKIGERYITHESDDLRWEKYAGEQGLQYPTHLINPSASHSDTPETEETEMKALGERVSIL

[13] = target: Serine/threonine-protein kinase 3 (Homo sapiens) (UniProt Q13188); assay: Inhibition of human MST2 at 100 nM
[14] = target: Serine/threonine-protein kinase BRSK2 (Homo sapiens) (UniProt Q8IWQ3); assay: Inhibition of human BRSK2 at 100 nM
[15] = target: Serine/threonine-protein kinase Chk2 (Homo sapiens) (UniProt O96017); assay: Inhibition of human CHK2 at 100 nM
[16] = target: Mitogen-activated protein kinase 3 (Homo sapiens) (UniProt P27361); assay: Inhibition of human ERK1 at 100 nM
[17] = target: Tyrosine-protein kinase Lck (Homo sapiens) (UniProt P06239); assay: Inhibition of human LCK at 100 nM
[18] = target: SRSF protein kinase 1 (Homo sapiens) (UniProt Q96SB4); assay: Inhibition of human SRPK1 at 100 nM
[19] = target: Proto-oncogene tyrosine-protein kinase Src (Homo sapiens) (UniProt P12931); assay: Inhibition of human Src at 100 nM
[20] = target: Serine/threonine-protein kinase STK11 (Homo sapiens) (UniProt Q15831); assay: Inhibition of human LKB1 at 100 nM
[21] = species on record: Homo sapiens; settings: at 100 nM
Description: Inhibition of human PKA at 100 nM

[22] = target: MAP kinase-interacting serine/threonine-protein kinase 2 (Homo sapiens) (UniProt Q9HBH9); assay: Inhibition of human MNK2 at 100 nM
[23] = target: Mitogen-activated protein kinase 1 (Homo sapiens) (UniProt P28482); assay: Inhibition of human ERK2 at 100 nM
[24] = target: RAC-alpha serine/threonine-protein kinase (Homo sapiens) (UniProt P31749); assay: Inhibition of human PKBalpha at 100 nM
[25] = target: Aurora kinase A (Homo sapiens) (UniProt O14965); assay: Inhibition of human Aurora A at 100 nM
[26] = target: Tyrosine-protein kinase JAK2 (Homo sapiens) (UniProt O60674); assay: Inhibition of human JAK2 at 100 nM
[27] = target: Serine/threonine-protein kinase Chk1 (Homo sapiens) (UniProt O14757); assay: Inhibition of human CHK1 at 100 nM
[28] = target: MAP kinase-activated protein kinase 5 (Homo sapiens) (UniProt Q8IW41); assay: Inhibition of human PRAK at 100 nM
[29] = target: Ribosomal protein S6 kinase alpha-3 (Homo sapiens) (UniProt P51812); assay: Inhibition of human RSK2 at 100 nM
[30] = target: CDK2/Cyclin A2 (Homo sapiens) (UniProt P24941+P20248); assay: Inhibition of human CDK2/Cyclin A at 100 nM; assay type: protein-complex assay
[31] = target: Serine/threonine-protein kinase PLK1 (Homo sapiens) (UniProt P53350); assay: Inhibition of human PLK1 at 100 nM
[32] = target: Dual specificity mitogen-activated protein kinase kinase 1 (Homo sapiens) (UniProt Q02750); assay: Inhibition of human MKK1 at 100 nM
[33] = target: Ribosomal protein S6 kinase alpha-1 (Homo sapiens) (UniProt Q15418); assay: Inhibition of human RSK1 at 100 nM
[34] = target: Insulin-like growth factor 1 receptor (Homo sapiens) (UniProt P08069); assay: Inhibition of human IGF1R at 100 nM
Sequence of Insulin-like growth factor 1 receptor (Homo sapiens) (P08069 31-736 limits assumed): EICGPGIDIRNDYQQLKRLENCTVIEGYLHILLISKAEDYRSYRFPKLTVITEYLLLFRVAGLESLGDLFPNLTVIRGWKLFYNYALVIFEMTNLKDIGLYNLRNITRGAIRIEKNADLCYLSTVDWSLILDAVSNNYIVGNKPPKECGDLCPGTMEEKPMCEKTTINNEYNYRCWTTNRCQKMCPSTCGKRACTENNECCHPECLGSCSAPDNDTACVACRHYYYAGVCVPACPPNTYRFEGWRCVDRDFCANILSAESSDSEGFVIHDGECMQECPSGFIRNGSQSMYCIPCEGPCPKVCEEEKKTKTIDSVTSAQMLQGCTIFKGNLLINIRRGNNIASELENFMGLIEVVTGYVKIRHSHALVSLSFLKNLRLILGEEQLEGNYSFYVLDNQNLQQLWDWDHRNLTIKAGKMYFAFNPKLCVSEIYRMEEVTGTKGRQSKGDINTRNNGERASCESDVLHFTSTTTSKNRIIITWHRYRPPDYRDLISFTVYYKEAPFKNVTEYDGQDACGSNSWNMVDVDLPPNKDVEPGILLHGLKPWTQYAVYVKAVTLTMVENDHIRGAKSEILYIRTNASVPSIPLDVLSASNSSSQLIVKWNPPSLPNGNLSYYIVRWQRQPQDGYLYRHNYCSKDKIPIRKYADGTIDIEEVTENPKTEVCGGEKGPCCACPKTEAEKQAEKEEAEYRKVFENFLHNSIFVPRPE
Sequence of Insulin-like growth factor 1 receptor (Homo sapiens) (P08069 741-1367 limits assumed): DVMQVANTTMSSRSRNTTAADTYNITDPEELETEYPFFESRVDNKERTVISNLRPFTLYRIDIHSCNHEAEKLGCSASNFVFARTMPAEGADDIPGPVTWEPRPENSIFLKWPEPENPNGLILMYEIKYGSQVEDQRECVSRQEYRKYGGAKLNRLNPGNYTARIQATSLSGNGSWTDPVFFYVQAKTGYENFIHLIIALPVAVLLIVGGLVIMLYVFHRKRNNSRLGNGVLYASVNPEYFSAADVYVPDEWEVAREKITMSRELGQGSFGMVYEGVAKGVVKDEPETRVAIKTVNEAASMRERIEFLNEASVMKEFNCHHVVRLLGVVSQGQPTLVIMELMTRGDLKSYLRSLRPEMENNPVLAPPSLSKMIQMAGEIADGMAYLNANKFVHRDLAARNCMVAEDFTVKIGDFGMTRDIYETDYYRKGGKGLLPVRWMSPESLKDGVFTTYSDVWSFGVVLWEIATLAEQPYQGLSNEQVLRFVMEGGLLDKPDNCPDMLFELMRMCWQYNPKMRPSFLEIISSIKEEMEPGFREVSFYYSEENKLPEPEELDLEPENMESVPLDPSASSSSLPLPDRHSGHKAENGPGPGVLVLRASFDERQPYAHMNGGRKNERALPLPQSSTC

Sequence of Fibroblast growth factor receptor 1 (Homo sapiens) (P11362 22-822 limits assumed): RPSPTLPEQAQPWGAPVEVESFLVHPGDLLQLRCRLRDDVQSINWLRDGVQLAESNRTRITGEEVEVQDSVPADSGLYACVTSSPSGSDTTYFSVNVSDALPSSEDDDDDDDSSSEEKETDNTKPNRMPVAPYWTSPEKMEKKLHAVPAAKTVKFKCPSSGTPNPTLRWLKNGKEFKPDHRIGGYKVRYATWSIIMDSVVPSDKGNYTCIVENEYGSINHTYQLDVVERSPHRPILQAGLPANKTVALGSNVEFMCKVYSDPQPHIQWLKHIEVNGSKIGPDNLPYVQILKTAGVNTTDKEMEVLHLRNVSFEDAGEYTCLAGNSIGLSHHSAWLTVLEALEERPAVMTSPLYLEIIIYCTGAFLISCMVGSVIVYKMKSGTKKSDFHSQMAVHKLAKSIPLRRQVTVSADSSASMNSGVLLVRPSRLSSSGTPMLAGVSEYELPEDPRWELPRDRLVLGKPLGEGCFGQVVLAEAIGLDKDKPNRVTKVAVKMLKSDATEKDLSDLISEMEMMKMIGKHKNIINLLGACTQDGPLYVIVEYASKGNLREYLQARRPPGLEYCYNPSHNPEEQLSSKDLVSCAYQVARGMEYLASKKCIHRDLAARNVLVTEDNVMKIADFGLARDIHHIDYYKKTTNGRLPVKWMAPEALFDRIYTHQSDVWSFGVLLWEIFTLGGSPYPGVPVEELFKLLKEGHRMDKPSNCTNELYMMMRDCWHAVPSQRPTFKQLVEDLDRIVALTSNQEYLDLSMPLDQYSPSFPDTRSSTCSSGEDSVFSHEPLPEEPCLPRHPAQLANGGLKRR
Sequence of Interleukin-1 receptor-associated kinase 4 (Homo sapiens) (Q9NWZ3 whole entry): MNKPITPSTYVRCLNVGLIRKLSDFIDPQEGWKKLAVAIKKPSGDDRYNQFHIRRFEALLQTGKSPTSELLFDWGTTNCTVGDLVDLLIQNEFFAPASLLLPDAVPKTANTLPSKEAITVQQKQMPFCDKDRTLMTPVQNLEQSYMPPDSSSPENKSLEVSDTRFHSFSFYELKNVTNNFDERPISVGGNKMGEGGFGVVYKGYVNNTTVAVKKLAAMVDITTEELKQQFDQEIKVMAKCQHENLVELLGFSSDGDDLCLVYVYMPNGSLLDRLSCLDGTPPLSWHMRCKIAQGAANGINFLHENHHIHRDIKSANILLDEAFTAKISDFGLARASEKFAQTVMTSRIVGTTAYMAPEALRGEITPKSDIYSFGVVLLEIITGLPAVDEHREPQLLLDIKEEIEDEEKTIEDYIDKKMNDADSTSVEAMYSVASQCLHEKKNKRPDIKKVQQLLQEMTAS
Sequence of Tyrosine-protein kinase Lck (Homo sapiens) (P06239 2-509 limits assumed): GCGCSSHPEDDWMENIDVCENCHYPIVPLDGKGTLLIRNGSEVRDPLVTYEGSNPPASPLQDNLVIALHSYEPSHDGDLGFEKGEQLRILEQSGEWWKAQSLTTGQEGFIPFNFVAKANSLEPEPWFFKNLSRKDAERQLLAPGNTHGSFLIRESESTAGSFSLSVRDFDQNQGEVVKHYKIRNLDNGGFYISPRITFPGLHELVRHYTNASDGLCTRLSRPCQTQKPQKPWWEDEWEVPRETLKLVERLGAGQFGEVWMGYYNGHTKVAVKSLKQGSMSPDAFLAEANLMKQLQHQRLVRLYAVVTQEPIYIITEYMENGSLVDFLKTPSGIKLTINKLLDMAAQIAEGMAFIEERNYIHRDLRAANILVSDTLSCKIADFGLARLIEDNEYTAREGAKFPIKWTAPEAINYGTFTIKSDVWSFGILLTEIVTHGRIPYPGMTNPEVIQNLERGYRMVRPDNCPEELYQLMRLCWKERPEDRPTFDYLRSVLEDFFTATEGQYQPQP
Sequence of RAC-alpha serine/threonine-protein kinase (Homo sapiens) (P31749 whole entry): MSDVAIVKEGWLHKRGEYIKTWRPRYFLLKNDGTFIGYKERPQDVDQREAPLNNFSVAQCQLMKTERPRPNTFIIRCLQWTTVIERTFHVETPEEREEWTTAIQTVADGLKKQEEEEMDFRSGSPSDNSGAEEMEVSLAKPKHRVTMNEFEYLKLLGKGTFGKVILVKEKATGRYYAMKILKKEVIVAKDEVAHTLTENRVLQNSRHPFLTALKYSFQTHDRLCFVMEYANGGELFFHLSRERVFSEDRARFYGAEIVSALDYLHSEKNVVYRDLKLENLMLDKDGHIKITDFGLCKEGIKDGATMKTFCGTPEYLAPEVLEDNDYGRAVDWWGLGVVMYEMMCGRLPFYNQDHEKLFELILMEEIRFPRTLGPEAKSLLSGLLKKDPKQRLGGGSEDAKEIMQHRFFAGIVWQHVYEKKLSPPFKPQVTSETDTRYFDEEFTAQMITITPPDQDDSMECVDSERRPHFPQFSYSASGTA
Sequence of Serine/threonine-protein kinase Nek2 (Homo sapiens) (P51955 whole entry): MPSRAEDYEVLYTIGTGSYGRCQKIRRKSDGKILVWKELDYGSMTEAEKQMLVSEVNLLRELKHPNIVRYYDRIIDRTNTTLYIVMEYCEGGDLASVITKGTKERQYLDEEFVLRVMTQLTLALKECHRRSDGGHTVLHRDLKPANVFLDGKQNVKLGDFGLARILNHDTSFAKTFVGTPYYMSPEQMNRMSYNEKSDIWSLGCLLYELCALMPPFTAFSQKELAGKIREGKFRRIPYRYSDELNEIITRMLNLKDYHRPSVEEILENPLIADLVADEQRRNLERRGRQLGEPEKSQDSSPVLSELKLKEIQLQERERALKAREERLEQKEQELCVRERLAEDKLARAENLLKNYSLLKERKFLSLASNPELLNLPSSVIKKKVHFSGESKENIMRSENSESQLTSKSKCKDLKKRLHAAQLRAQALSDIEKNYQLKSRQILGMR
Sequence of Serine/threonine-protein kinase pim-1 (Homo sapiens) (P11309 whole entry, looked up): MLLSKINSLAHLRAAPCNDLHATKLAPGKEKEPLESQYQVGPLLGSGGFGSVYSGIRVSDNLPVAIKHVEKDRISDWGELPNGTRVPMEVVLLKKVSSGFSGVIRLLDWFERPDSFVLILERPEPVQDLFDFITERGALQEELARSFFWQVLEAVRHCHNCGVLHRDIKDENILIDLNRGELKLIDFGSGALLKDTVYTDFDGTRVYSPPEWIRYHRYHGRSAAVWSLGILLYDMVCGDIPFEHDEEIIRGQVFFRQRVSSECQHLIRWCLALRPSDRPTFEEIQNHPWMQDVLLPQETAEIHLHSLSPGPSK

With `CN1CCC(c2nc(-c3ccc(F)c(NS(C)(=O)=O)c3)c(-c3ccnc(NCC4CC4)n3)s2)CC1` as the compound, how does the remaining at 40 min [1] read?
Its remaining at 40 min is 95%.

And the inhibition [2]?
Its inhibition is under 70%.

What about the inhibition [3] of the same compound?
The inhibition was under 70%.

And the inhibition [4]?
Its inhibition is under 70%.

What about the inhibition [5] of the same compound?
The inhibition was under 70%.

And the inhibition [6]?
The inhibition was under 70%.

And the inhibition [7]?
The inhibition was under 70%.

What about the inhibition [8] of the same compound?
Its inhibition is under 70%.

And the inhibition [9]?
Its inhibition is under 70%.

What about the inhibition [10] of the same compound?
The inhibition was under 70%.

And the inhibition [11]?
The inhibition was under 70%.

What about the inhibition [12] of the same compound?
The inhibition was under 70%.

What about the inhibition [13] of the same compound?
Its inhibition is under 70%.

And the inhibition [14]?
Its inhibition is under 70%.

What about the inhibition [15] of the same compound?
Its inhibition is under 70%.

And the inhibition [16]?
The inhibition was under 70%.

What about the inhibition [17] of the same compound?
The inhibition was under 70%.

What about the inhibition [18] of the same compound?
Its inhibition is under 70%.

And the inhibition [19]?
Its inhibition is under 70%.

What about the inhibition [20] of the same compound?
Its inhibition is under 70%.

And the inhibition [21]?
Its inhibition is under 70%.

What about the inhibition [22] of the same compound?
Its inhibition is under 70%.

And the inhibition [23]?
The inhibition was under 70%.

And the inhibition [24]?
Its inhibition is under 70%.

And the inhibition [25]?
Its inhibition is under 70%.

What about the inhibition [26] of the same compound?
The inhibition was under 70%.

And the inhibition [27]?
Its inhibition is under 70%.

And the inhibition [28]?
The inhibition was under 70%.

And the inhibition [29]?
The inhibition was under 70%.

And the inhibition [30]?
The inhibition was under 70%.

And the inhibition [31]?
The inhibition was under 70%.

What about the inhibition [32] of the same compound?
The inhibition was under 70%.

And the inhibition [33]?
Its inhibition is under 70%.

And the inhibition [34]?
The inhibition was under 70%.

With `CN1CCC(c2nc(-c3cccc(S(C)(=O)=O)c3)c(-c3ccnc(Nc4ccc(N5CCNCC5)cc4)n3)s2)CC1` as the compound, how does the remaining at 40 min [1] read?
Its remaining at 40 min is 84%.

What about the inhibition [2] of the same compound?
Its inhibition is under 70%.

And the inhibition [3]?
Its inhibition is under 70%.

What about the inhibition [4] of the same compound?
Its inhibition is under 70%.

What about the inhibition [5] of the same compound?
Its inhibition is under 70%.

And the inhibition [6]?
The inhibition was under 70%.

What about the inhibition [7] of the same compound?
Its inhibition is under 70%.

What about the inhibition [8] of the same compound?
Its inhibition is under 70%.

And the inhibition [9]?
The inhibition was under 70%.

What about the inhibition [10] of the same compound?
The inhibition was under 70%.

What about the inhibition [11] of the same compound?
The inhibition was under 70%.

And the inhibition [12]?
The inhibition was under 70%.

What about the inhibition [13] of the same compound?
Its inhibition is under 70%.

And the inhibition [14]?
Its inhibition is under 70%.

What about the inhibition [15] of the same compound?
The inhibition was under 70%.

What about the inhibition [16] of the same compound?
Its inhibition is under 70%.

What about the inhibition [17] of the same compound?
Its inhibition is under 70%.

What about the inhibition [18] of the same compound?
The inhibition was under 70%.

And the inhibition [19]?
Its inhibition is under 70%.

And the inhibition [20]?
Its inhibition is under 70%.

And the inhibition [21]?
The inhibition was under 70%.

And the inhibition [22]?
The inhibition was under 70%.

And the inhibition [23]?
The inhibition was under 70%.

What about the inhibition [24] of the same compound?
Its inhibition is under 70%.

What about the inhibition [25] of the same compound?
The inhibition was under 70%.

And the inhibition [26]?
Its inhibition is under 70%.

What about the inhibition [27] of the same compound?
The inhibition was under 70%.

What about the inhibition [28] of the same compound?
The inhibition was under 70%.

And the inhibition [29]?
Its inhibition is under 70%.

What about the inhibition [30] of the same compound?
Its inhibition is under 70%.

And the inhibition [31]?
The inhibition was under 70%.

What about the inhibition [32] of the same compound?
The inhibition was under 70%.

What about the inhibition [33] of the same compound?
The inhibition was under 70%.

And the inhibition [34]?
Its inhibition is under 70%.
